What was measured:
EcMaeB [1] = molecular target: T1, EcMaeB (Escherichia coli, UniProt P76558); experiment: Enzyme kinetic parameters (Michaelis-Menten, substrate inhibition, empirical Hill plots); assay type: biochemical
T1 construct: His-tag (C); made in house; host or cells: E. coli BL21(DE3)
T1 sequence (P76558 1-759): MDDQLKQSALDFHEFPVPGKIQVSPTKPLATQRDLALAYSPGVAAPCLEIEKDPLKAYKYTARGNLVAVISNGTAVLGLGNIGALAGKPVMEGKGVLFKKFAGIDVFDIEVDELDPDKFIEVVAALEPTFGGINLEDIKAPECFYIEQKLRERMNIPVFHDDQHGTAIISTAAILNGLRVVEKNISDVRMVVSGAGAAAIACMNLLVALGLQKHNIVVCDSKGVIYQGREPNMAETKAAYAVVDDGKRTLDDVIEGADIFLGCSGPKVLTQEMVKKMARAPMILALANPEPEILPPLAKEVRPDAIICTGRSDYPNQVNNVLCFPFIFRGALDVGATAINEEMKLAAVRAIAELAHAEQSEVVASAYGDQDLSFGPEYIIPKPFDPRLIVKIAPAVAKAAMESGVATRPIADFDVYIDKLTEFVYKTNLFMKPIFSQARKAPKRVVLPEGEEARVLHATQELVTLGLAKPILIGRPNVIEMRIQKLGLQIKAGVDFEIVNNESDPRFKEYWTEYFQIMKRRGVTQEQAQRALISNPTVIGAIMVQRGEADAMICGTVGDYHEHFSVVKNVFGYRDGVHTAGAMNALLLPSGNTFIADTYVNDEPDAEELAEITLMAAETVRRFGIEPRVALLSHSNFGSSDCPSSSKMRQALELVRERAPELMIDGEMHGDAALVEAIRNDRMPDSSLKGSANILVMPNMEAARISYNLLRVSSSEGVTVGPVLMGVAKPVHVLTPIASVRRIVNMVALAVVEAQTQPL
Protocol: (§1) Spectrophotometric assays were used to monitor the oxidative decarboxylation of L-malate to pyruvate using a SpectraMax M2, UV-Visible spectrophotometer (Molecular Devices) operated by SoftMax Pro Software with kinetic mode. All assays recorded the Δabsorbance at 340 nm (NADPH) at 30 °C. Assays were initiated by the addition of enzyme to the otherwise complete reaction mixture. […] Acetyl-CoA was tested at 5 μM.
(§2) For this substrate inhibition model, x should be fixed. […] The plots shown in Fig. S1F were fitted to the empirical Hill equation: v0=Vmax·[malate]^h/(K0.5h+[malate]^h) where K0.5 indicates the substrate concentration for half-saturation. When h is equal to 1, K0.5 matches Michaelis constant Km.

BbMaeB = molecular target: T2, BbMaeB (Bdellovibrio bacteriovorus, UniProt A0A1Z3N8R4); experiment: as above; assay type: biochemical, Bdellovibrio bacteriovorus strain SSB218315
T2 sequence (A0A1Z3N8R4 1-776): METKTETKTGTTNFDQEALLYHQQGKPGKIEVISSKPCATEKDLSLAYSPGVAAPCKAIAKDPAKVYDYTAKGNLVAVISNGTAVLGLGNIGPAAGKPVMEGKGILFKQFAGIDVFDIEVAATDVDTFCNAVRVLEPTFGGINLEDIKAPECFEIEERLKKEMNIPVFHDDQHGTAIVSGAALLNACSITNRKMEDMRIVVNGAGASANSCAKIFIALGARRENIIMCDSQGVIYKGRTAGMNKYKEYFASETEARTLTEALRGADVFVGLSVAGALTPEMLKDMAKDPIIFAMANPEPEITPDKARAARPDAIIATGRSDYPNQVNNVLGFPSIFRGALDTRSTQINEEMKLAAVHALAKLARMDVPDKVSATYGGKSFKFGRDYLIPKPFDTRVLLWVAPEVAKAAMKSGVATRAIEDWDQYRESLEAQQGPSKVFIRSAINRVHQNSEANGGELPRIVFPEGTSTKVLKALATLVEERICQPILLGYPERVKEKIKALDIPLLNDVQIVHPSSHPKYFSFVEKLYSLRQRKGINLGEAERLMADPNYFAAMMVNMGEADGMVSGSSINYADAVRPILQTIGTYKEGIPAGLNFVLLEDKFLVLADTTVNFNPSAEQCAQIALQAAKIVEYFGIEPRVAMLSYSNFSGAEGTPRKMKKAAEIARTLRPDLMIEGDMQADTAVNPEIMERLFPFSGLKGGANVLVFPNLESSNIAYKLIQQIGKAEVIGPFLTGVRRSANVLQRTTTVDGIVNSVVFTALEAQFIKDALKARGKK
Protocol: as §1, §2

EcMaeB [2] = molecular target: T1, EcMaeB; parameters: method as in PMID 17557829; details: previous study; cited from earlier work
DME = tested on: DME; parameters: method as in PMID 10407149; details: cited from earlier work
[3] = substrate: O=C(O)C[C@H](O)C(=O)O; experiment: Enzyme kinetic parameters (Michaelis-Menten, substrate inhibition, empirical Hill plots); assay type: biochemical, Escherichia coli; details: other: EcMaeB; substrate inhibition plot, NADP+ fixed 0.5 mM, without acetyl-CoA; pH 7.5; 30.0 °C
[4] = molecular target: the molecule itself; experiment: crystal structure; EcMaeB without cofactors and acetyl-CoA; 20 mg/ml protein, 0.2 M potassium chloride pH 7.0, 20% v/v PEG 3350, 20 °C; homohexamer
[5] = substrate: O=C(O)C[C@H](O)C(=O)O; experiment: Enzyme kinetic parameters (Michaelis-Menten, substrate inhibition, empirical Hill plots); assay type: biochemical, Bdellovibrio bacteriovorus strain SSB218315; details: other: BbMaeB; substrate inhibition plot, NADP+ fixed 0.5 mM, without acetyl-CoA; pH 7.5; 30.0 °C

**Q.** With `O=C(O)C[C@H](O)C(=O)O` [malate, L-malate] as the molecule, how does the “K0.5 from the empirical Hill equation” value (EcMaeB [1]; EcMaeB, in the presence of acetyl-CoA, 0.5 mM NADP+, 300 nM enzyme) read?
**A.** The value was 18.1 ± 3.20 mM.

**Q.** What about the “K0.5 from the empirical Hill equation” value (BbMaeB; in the presence of acetyl-CoA, 0.5 mM NADP+, 300 nM enzyme) of the same molecule?
**A.** The value was 7.44 ± 1.21 mM.

**Q.** For NADP^+, which “change of Km for NADP+ with Mn2+ instead of Mg2+” value (EcMaeB [1]; EcMaeB, 5 mM MnCl2) is on record?
**A.** Its value is “approximately doubled”.

**Q.** And the “change of Km for NADP+ with Mn2+ instead of Mg2+” value (BbMaeB; 5 mM MnCl2)?
**A.** Its value is “approximately doubled”.

**Q.** For `[Mg+2]` [Mg^2+], which “effect of different Mg2+ concentrations on kinetic parameters” value (EcMaeB [1]) is on record?
**A.** Its value is “no significant changes in kinetic parameters”.

**Q.** What about the “concentration at which EcMaeB activity is inhibited” value (EcMaeB [2]) of the same molecule?
**A.** The value was “above 4 mM”.

**Q.** Which “effect on DME activity” value (DME) does the source give for `CCCC(=O)SCCNC(=O)CCNC(=O)[C@H](O)C(C)(C)COP(=O)(O)OP(=O)(O)OC[C@H]1O[C@@H](n2cnc3c(N)ncnc32)[C@H](O)[C@@H]1OP(=O)(O)O` [butyryl-CoA] here?
**A.** The value was “inhibited”.

**Q.** With `CCC(=O)SCCNC(=O)CCNC(=O)[C@H](O)C(C)(C)COP(=O)(O)OP(=O)(O)OC[C@H]1O[C@@H](n2cnc3c(N)ncnc32)[C@H](O)[C@@H]1OP(=O)(O)O` [propionyl-CoA] as the molecule, how does the “effect on DME activity” value (DME) read?
**A.** The value was “inhibited”.

B1: malic enzyme B (MaeB) from Escherichia coli (enzyme, UniProt P76558 1-759, looked up)
chain: MDDQLKQSALDFHEFPVPGKIQVSPTKPLATQRDLALAYSPGVAAPCLEIEKDPLKAYKYTARGNLVAVISNGTAVLGLGNIGALAGKPVMEGKGVLFKKFAGIDVFDIEVDELDPDKFIEVVAALEPTFGGINLEDIKAPECFYIEQKLRERMNIPVFHDDQHGTAIISTAAILNGLRVVEKNISDVRMVVSGAGAAAIACMNLLVALGLQKHNIVVCDSKGVIYQGREPNMAETKAAYAVVDDGKRTLDDVIEGADIFLGCSGPKVLTQEMVKKMARAPMILALANPEPEILPPLAKEVRPDAIICTGRSDYPNQVNNVLCFPFIFRGALDVGATAINEEMKLAAVRAIAELAHAEQSEVVASAYGDQDLSFGPEYIIPKPFDPRLIVKIAPAVAKAAMESGVATRPIADFDVYIDKLTEFVYKTNLFMKPIFSQARKAPKRVVLPEGEEARVLHATQELVTLGLAKPILIGRPNVIEMRIQKLGLQIKAGVDFEIVNNESDPRFKEYWTEYFQIMKRRGVTQEQAQRALISNPTVIGAIMVQRGEADAMICGTVGDYHEHFSVVKNVFGYRDGVHTAGAMNALLLPSGNTFIADTYVNDEPDAEELAEITLMAAETVRRFGIEPRVALLSHSNFGSSDCPSSSKMRQALELVRERAPELMIDGEMHGDAALVEAIRNDRMPDSSLKGSANILVMPNMEAARISYNLLRVSSSEGVTVGPVLMGVAKPVHVLTPIASVRRIVNMVALAVVEAQTQPL
notes: MaeB of E. coli, gene amplified from genomic DNA of strain SHuffle T7; Cloned in pET-28a(+); Homohexamer in the crystal and in cryo-EM; also called EcMaeB; EcMaeBapo; source: E. coli BL21(DE3), purified (HisTrap TALON, size-exclusion chromatography)
**Q.** Which Km [3] does the source give for B1 here?
**A.** The Km was 20.7 ± 8.83 mM.

**Q.** What about the “stoichiometry N” value [4] of the same molecule?
**A.** Its value is 6.

B2: BbMaeB (Bdellovibrio bacteriovorus) (protein)
chain: METKTETKTGTTNFDQEALLYHQQGKPGKIEVISSKPCATEKDLSLAYSPGVAAPCKAIAKDPAKVYDYTAKGNLVAVISNGTAVLGLGNIGPAAGKPVMEGKGILFKQFAGIDVFDIEVAATDVDTFCNAVRVLEPTFGGINLEDIKAPECFEIEERLKKEMNIPVFHDDQHGTAIVSGAALLNACSITNRKMEDMRIVVNGAGASANSCAKIFIALGARRENIIMCDSQGVIYKGRTAGMNKYKEYFASETEARTLTEALRGADVFVGLSVAGALTPEMLKDMAKDPIIFAMANPEPEITPDKARAARPDAIIATGRSDYPNQVNNVLGFPSIFRGALDTRSTQINEEMKLAAVHALAKLARMDVPDKVSATYGGKSFKFGRDYLIPKPFDTRVLLWVAPEVAKAAMKSGVATRAIEDWDQYRESLEAQQGPSKVFIRSAINRVHQNSEANGGELPRIVFPEGTSTKVLKALATLVEERICQPILLGYPERVKEKIKALDIPLLNDVQIVHPSSHPKYFSFVEKLYSLRQRKGINLGEAERLMADPNYFAAMMVNMGEADGMVSGSSINYADAVRPILQTIGTYKEGIPAGLNFVLLEDKFLVLADTTVNFNPSAEQCAQIALQAAKIVEYFGIEPRVAMLSYSNFSGAEGTPRKMKKAAEIARTLRPDLMIEGDMQADTAVNPEIMERLFPFSGLKGGANVLVFPNLESSNIAYKLIQQIGKAEVIGPFLTGVRRSANVLQRTTTVDGIVNSVVFTALEAQFIKDALKARGKK
**Q.** For B2, which Km [5] is on record?
**A.** Its Km is 6.22 ± 1.55 mM.
